From US12589101B2, “Cyclodextrin protein drug conjugates” (Regeneron Pharmaceuticals, Inc., priority 2017, dated 2026)
Values after ≈ are worked out from the molar mass of the structure shown. Read-outs that look alike come from different tables or passages of the source. Numbered stars: 1 amine (or outer) side, 2 acyl side, 3 side chain; on linkers, the order of the positions; unused ones are H or OH. Square brackets hold non-standard residues; d marks the D form. Peptide text beside a SMILES is read from it. * marks the point of attachment. Dolaproine = CO[C@@H]([C@@H]1CCCN1)[C@@H](C)C(=O)O; Dil = CC[C@H](C)[C@H](NC)[C@@H](CC(=O)O)OC; PABC = O=C(OCc1ccc(N[*:1])cc1)[*:2]; DBCO = C1#Cc2ccccc2N(*)Cc2ccccc21; X1 = C[C@@H](N*)[C@@H](O)c1ccccc1; Cit = NC(=O)NCCC[C@H](N)C(=O)O; PEG4 = NCCOCCOCCOCCOCCC(=O)O; Suc = O=C(CCC(=O)[*:2])[*:1]; NMeV = CN[C@H](C(=O)O)C(C)C

How the values were obtained:
[1] = Solubility of linker-payloads (LC-MS standard curve, saturated solution); format: physicochemical
Experimental: The following test assays the solubility of the linker-payloads with a cyclodextrin moiety and the linker-payloads without a cyclodextrin moiety.
The test compounds were dissolved in DMSO to build a standard curve using LC-MS method A or B. The test sample was dissolved in water and sonicated for 10 minutes, and then centrifuged. The upper clear solution was analyzed using the same method A or B and the solubility was calculated based on its peak area.
Detailed test procedures were as follows: • 1. […] 0.05 mg of compound was suspended in water (1 mL) and sonicated for 10 minutes. After centrifugation, the clear solution above was collected to provide the saturated sample solution. • 3. All the standard solutions A, B, C, D, E and sample solution were analyzed by LCMS (using the same method and same injection volume) to obtain the peak areas. • 4. Calculate the standard curve according to the data of A-D (X=concentration, Y=peak areas). • 5. Calculate to obtain the concentration of saturated sample solution according to the functions obtained above.

Human liver Cathepsin B = target: T1, Human liver Cathepsin B (Homo sapiens, UniProt P07858); assay: Cathepsin B cleavage assay, payload released (Example 73); format: biochemical; settings: 37° C., 50 μM substrate, pH 5
T1 construct: Human liver Cathepsin B (Athens Research & Technology, Cat #16-12-030102); purchased Athens Research & Technology 16-12-030102; host or cells: human liver
Experimental: To determine the effect on the cleavage efficiency on a steroid or LXR agonist payload when a cyclodextrin moiety was added in the linker, a Cathepsin B cleavage assay was performed. For the assay, the linker-payload stock solution (10 mM of linker-payload in DMSO) was added into a solution of 100 mM NaOAc, 10 mM dithiothreitol, at pH5 to obtain a 50 μM substrate solution. Human liver Cathepsin B (Athens Research & Technology, Cat #16-12-030102) in 50 mM NaOAc, 1 mM EDTA, at pH 5, was added to the substrate solution. The Cathepsin B and substrate solution was mixed with and without 10 mM of a Cathepsin B inhibitor (CA074; APE Bio, Cat #A1926), and incubated at 37° C. for 4 hours. Following the 4 hour incubation, acetic acid and then acetonitrile were added to stop the reaction. The quenched samples then underwent centrifugation at 14,000 rpm. Aliquots of the resultant supernatants were then diluted with equal volume of water and analyzed by LC/MS to determine the amount of payload released. The stability and activity of Cathepsin B was confirmed by incubating with 200 μM fluorogenic substrate for Cathepsin B (Santa Cruz Biotechnology, Cat #207975) (fluorescence at excitation of 340 nm/emission of 425 nm).

Cathepsin B = Cathepsin B (Homo sapiens, UniProt P07858); assay: Cathepsin B cleavage rate of linker-payloads (Example 66); format: biochemical; settings: Cathepsin B cleavage rate; for capB: Table 8A; for CapB (%): pH 5.0, 37° C.
Experimental: Step 1: Preparation of Cathepsin B buffer: 0.1 M NaOAc/0.01M DTT (pH5.0) Dissolve 8.3 g/L NaOAc, 1.54 g/L DTT in deionized water. Adjust pH to 5.0 with HCl/sodium hydroxide.
Step 2: Test Cleavage Rate
• 1. Prepare 25 μM of testing sample: To a 2-mL-tube was added 0.5 mg of testing sample, followed by the addition of 0.2 mL of DMSO. The solution was added dropwise into 0.8 mL of 0.1 M NaOAc/0.01 M DTT buffer. The obtained mixtures were sonicated for 5 minutes to obtain clear and colorless solutions. The pH value of the solution was around 5 according to pH test strip. • 2. Preheat assay buffer: 0.1 M NaOAc/0.01 M DTT (pH 5.0) • 3. Spiking solutions for test compounds: 25 μM Spiking solutions for test compounds: Add 2 μL of 5 mM stock solution into 398 μL of 0.1 M NaOAc/0.01 M DTT buffer (pH 5.0). • 4. Prepare 0.47 μg/μL Cathepsin B in 50 mM NaOAc/1 mM EDTA (pH 5.0). Put on ice. • 5. Without CA074 samples: Add 4 μL of 0.47 μg/μL Cathepsin B into 196 μL of 25 μM Spiking solutions (from step 2), incubate the tubes at 37° C. • 6. With CA074 samples: Add 4 μL of 0.47 μg/μL Cathepsin B with 4 μL of 10 mM Inhibitor (CA074) into 196 μL of 25 μM Spiking solutions (from step 2), incubate the tubes. • 7. After quenching, shake the plate and centrifuge them at 14000 rpm. • 8. Transfer 50 μL of the supernatant from each well into a 96-well sample plate containing 50 μL of ultra pure water (Millipore, ZMQS50F01) for LC/MS analysis. Step 3: Test reference compounds: • 9. Preheat assay buffer: 100 mM Na/K phosphate, pH 6.0, with 1.33 mM EDTA and 2 mM DTT. • 10. Prepare 0.024 μg/μL Cathepsin B: Add 1 μL of 0.47 μg/μL Cathepsin B stock into 19 μL of assay buffer (from step 11). • 11. Add 2 μL of 0.024 μg/μL Cathepsin B (from step 12) to a opaque 96-well plate. • 12. Add 96 μL of assay buffer to each sample. • 13. Add 2 μL of the 10 mM substrate Z-RR-MNA (200 μM final concentration). • 14. For negative control (With inhibitor), add 2 μL of 10 mM Inhibitor (CA074): Immediately read the samples in a kinetic mode at excitation of 340 nm/emission of 425 nm (Read the plate every 30 Second for 3 min). Step 4: Stability of Cathepsin B in incubation samples: • 15. Take 5 μL of incubation samples into 93 μL of assay buffer (from step 11), and then add 2 μL of 10 mM substrate (Z-RR-MNA). • 16. Incubate the samples at 37° C. for 2 min. • 17. Read the samples at excitation of 340 nm/emission of 425 nm.

[2] = water, thermodynamic from solid, Table 8A, read-out: Solubility
[3] = water, thermodynamic from solid, aqueous, read-out: Aq. Solubility
[4] = water, thermodynamic from solid, water, read-out: Solubility
[5] = water, thermodynamic from solid, Aq. Solubility (mg/mL)
[6] = water, thermodynamic from solid, Solubility

Compound `CCCC1O[C@@H]2C[C@H]3[C@@H]4C[C@H](F)C5=CC(=O)C=C[C@]5(C)[C@@]4(F)[C@@H](O)C[C@]3(C)[C@]2(C(=O)CNC(=O)OCc2ccc(NC(=O)[C@H](CCCNC(N)=O)NC(=O)[C@@H](NC(=O)[C@@H](CCCCNC(=O)COC3CCCCCc4c3nnn4CC3OC4OC5C(CO)OC(OC6C(CO)OC(OC7C(CO)OC(OC8C(CO)OC(OC9C(CO)OC(OC3C(O)C4O)C(O)C9O)C(O)C8O)C(O)C7O)C(O)C6O)C(O)C5O)NC(=O)CCOCCOCCOCCOCCNC(=O)CCC(=O)N3Cc4ccccc4C#Cc4ccccc43)C(C)C)cc2)O1` (stereo partly shown) [Ex59, DIBAC-suc-PEG4-dLys(COT-CD)-vcPAB-1h] has a solubility at 10 min [1, 2] of 26 µg/mL (≈ 9.64 µM), a solubility at 10 min [1, 3] of 26 µg/mL (≈ 9.64 µM) and a solubility at 10 min [1, 4] of 26 µg/mL (≈ 9.64 µM). The “Percent of payload released at 4 hrs” value (Human liver Cathepsin B) was 28.9%, the capB (Cathepsin B) was 29% and the “CapB (%)” value (Cathepsin B) was “% (% ≤50 CapB (%))”.

For `CC(C)[C@H](NC(=O)[C@@H](CCCCNC(=O)COC1CCCCCc2c1nnn2CC1OC2OC3C(CO)OC(OC4C(CO)OC(OC5C(CO)OC(OC6C(CO)OC(OC7C(CO)OC(OC1C(O)C2O)C(O)C7O)C(O)C6O)C(O)C5O)C(O)C4O)C(O)C3O)NC(=O)CCOCCOCCOCCOCCNC(=O)CCC(=O)N1Cc2ccccc2C#Cc2ccccc21)C(=O)N[C@@H](C)C(=O)Nc1ccc2c(c1)[C@@]1(C)CCC[C@](C)(C(=O)NC(=O)[C@@]3(C)CCC[C@]4(C)c5cc(O)ccc5CC[C@@H]34)[C@@H]1CC2` (stereo partly shown) [Ex49], the “Concentration (mM) of saturated solution” value ([1]; 10 min) was 0.019 mM, the Solubility ([1]; 10 min) was 0.05 mg/ mL mg/mL and the solubility thermodynamic at 10 min ([1]; water, thermodynamic from solid) was 48 µg/mL (≈ 19 µM). For the same compound, the solubility at 10 min [1, 5] was 50 µg/mL (≈ 19.8 µM), the solubility at 10 min [1, 6] was 50 µg/mL (≈ 19.8 µM) and the “Percent of payload released at 4 hrs” value (Human liver Cathepsin B) was 38.5%. The capB (Cathepsin B) was 38.5% [1] and the “CapB (%)” value (Cathepsin B) was “% % (60< % % ≤70 CapB (%))”.

For `CC[C@H](C)[C@@H]([C@@H](CC(=O)N1CCC[C@H]1[C@H](OC)[C@@H](C)C(=O)N[C@H](C)[C@@H](O)c1ccccc1)OC)N(C)C(=O)[C@@H](NC(=O)[C@H](C(C)C)N(C)C(=O)OCc1ccc(NC(=O)[C@H](CCCNC(N)=O)NC(=O)[C@@H](NC(=O)[C@@H](CCCCNC(=O)COC2CCCCCc3c2nnn3CC2OC3OC4C(CO)OC(OC5C(CO)OC(OC6C(CO)OC(OC7C(CO)OC(OC8C(CO)OC(OC2C(O)C3O)C(O)C8O)C(O)C7O)C(O)C6O)C(O)C5O)C(O)C4O)NC(=O)CCOCCOCCOCCOCCNC(=O)OC[C@@H]2[C@@H]3CCC#CCC[C@@H]32)C(C)C)cc1)C(C)C` (stereo partly shown) [Ex42], the solubility at 10 min [1, 3] was greater than 1000 µg/mL, the solubility at 10 min [1, 4] was 1000 µg/mL (≈ 352 µM) and the “CapB (%)” value (Cathepsin B) was “% % (60< % % ≤70 CapB (%))”.

For `CCCC1O[C@@H]2C[C@H]3[C@@H]4C[C@H](F)C5=CC(=O)C=C[C@]5(C)[C@@]4(F)[C@@H](O)C[C@]3(C)[C@]2(C(=O)CNC(=O)OCc2ccc(NC(=O)[C@H](CCCNC(N)=O)NC(=O)[C@@H](NC(=O)CCOCCOCCOCCOCCNC(=O)CCC(=O)N3Cc4ccccc4C#Cc4ccccc43)C(C)C)cc2)O1` (stereo partly shown) [Ex58, DIBAC-suc-PEG4-vcPAB-1h], the solubility at 10 min [1, 2] was less than 20 µg/mL, the solubility at 10 min [1, 3] was less than 20 µg/mL and the “Percent of payload released at 4 hrs” value (Human liver Cathepsin B) was 7.5-17.2%. The capB (Cathepsin B) was 20.8% and the “CapB (%)” value (Cathepsin B) was “% (% ≤50 CapB (%))”.

With `CCC[C@@H]1O[C@@H]2C[C@H]3[C@@H]4CCC5=CC(=O)C=C[C@]5(C)[C@H]4[C@@H](O)C[C@]3(C)[C@]2(C(=O)COc2ccc(NC(=O)[C@H](C)NC(=O)[C@@H](NC(=O)CCOCCOCCOCCOCCNC(=O)CCC(=O)N3Cc4ccccc4C#Cc4ccccc43)C(C)C)cc2)O1` [Ex45, 1-(4-{2-azatricyclo[10.4.0.0^4,9]hexadeca-1(12),4(9),5,7,13,15-hexaen-10-yn-2-yl}-4-oxobutanamido)-N-[(1S)-1-{[(1S)-1-[(4-{2-[(1S,2S,4R,6R,8S,9S,11 S,12S,13R)-11-hydroxy-9,13-dimethyl-16-oxo-6-propyl-5,7-dioxapentacyclo[10.8.0.0^2,9.0^4,8.0^13,18]icosa-14,17-dien-8-yl]-2-oxoethoxy}phenyl)carbamoyl]ethyl]carbamoyl}-2-methylpropyl]-3,6,9,12-tetraoxapentadecan-15-amide] the solubility at 10 min [1, 3] was less than 100 µg/mL, the solubility at 10 min [1, 4] was less than 100 µg/mL and the “CapB (%)” value (Cathepsin B) was “% (% ≤50 CapB (%))”.

In the case of `CC(C)[C@H](NC(=O)[C@@H](CCCCNC(=O)CCOCCOCCOCCOCCNC(=O)COC1CCCCCc2nnn(CC3OC4OC5C(CO)OC(OC6C(CO)OC(OC7C(CO)OC(OC8C(CO)OC(OC9C(CO)OC(OC3C(O)C4O)C(O)C9O)C(O)C8O)C(O)C7O)C(O)C6O)C(O)C5O)c21)NC(=O)CCOCCOCCOCCOCCNC(=O)CCC(=O)N1Cc2ccccc2C#Cc2ccccc21)C(=O)N[C@@H](C)C(=O)Nc1ccc2c(c1)[C@@]1(C)CCC[C@](C)(C(=O)NC(=O)[C@@]3(C)CCC[C@]4(C)c5cc(O)ccc5CC[C@@H]34)[C@@H]1CC2` (stereo partly drawn) [Ex53, DIBAC-suc-PEG4-D-Lys(PEG4-COT-CD)-Val-Ala-1d], the solubility at 10 min [1, 5] is reported as 330 µg/mL (≈ 119 µM), the solubility at 10 min [1, 6] is reported as 180 µg/mL (≈ 65 µM) and the “CapB (%)” value (Cathepsin B) is reported as “% (50< % ≤60 CapB (%))”.

In the case of `CC[C@H](C)[C@@H]([C@@H](CC(=O)N1CCC[C@H]1[C@H](OC)[C@@H](C)C(=O)N[C@H](C)[C@@H](O)c1ccccc1)OC)N(C)C(=O)[C@@H](NC(=O)[C@H](C(C)C)N(C)C(=O)OCc1ccc(NC(=O)[C@H](CCCNC(N)=O)NC(=O)[C@@H](NC(=O)CCOCCOCCOCCOCCNC(=O)CCC(=O)N2Cc3ccccc3C#Cc3ccccc32)C(C)C)cc1)C(C)C` [Ex36] ({DBCO-Suc-PEG4}-V[Cit][PABC][NMeV]V[Dil][Dolaproine]-X1), the solubility at 10 min [1, 3] is reported as less than 100 µg/mL, the solubility at 10 min [1, 4] is reported as less than 100 µg/mL and the “CapB (%)” value (Cathepsin B) is reported as “% % (60< % % ≤70 CapB (%))”.
